# Source: patent US20020162128A1, “Non-human animal deficient in function of pituitary adenylate cyclase-activating polypeptide gene” (priority 2000, published 2002)
# How the values were obtained:
# Format in all cases: in vivo, mouse
# PACAP−/− mice [1] = assay: Catalepsy in the bar test after haloperidol; details: haloperidol 0.2 and 2 mg/kg intraperitoneally; PACAP−/− mice compared with wild-type mice
# Description: (§1) Motor activity was quantified using an automated video-tracking system, the video image motion analyzer AXIS-90 (Neuroscience, Inc., Tokyo, Japan). A computer program was used to overlay grid lines defining 25 separate regions within a circular open field (60 cm in diameter, 30 cm deep, illuminated with white light, 100 lux). Paths taken by each mouse were stored permanently as x-y coordinate sequences, and parameters indicative of locomotor activity were assessed. Vertical activity (rearing and jumping) were also scored. In the haloperidol study, the drug was injected intraperitoneally 20 min prior to monitoring locomotor activity, which was measured for 90 min by another activity-monitoring system, Supermex (multi-channel system; Muromachi Kikai Co., Ltd., Tokyo, Japan). Subsequently, the same mice were tested for catalepsy in the bar test as previously described in Boulay, D., Depoortere, R., Oblin, A., Sanger, D. J., Schoemaker, H. & Perrault, G. (2000) Eur. J. Pharmacol. 391, 63-73.
# (§2) Effects of haloperidol on locomotor activity. (A) PACAP+/+and PACAP−/− mice (n =6-7) were injected intraperitoneally with 0.2 and 2 mg/kg haloperidol or vehicle (0.5% carboxymethyl cellulose sodium) and 20 min later placed in the open field for automated measurement of locomotor parameters over a 90 min test period. (B) Subsequently, each mouse was tested for catalepsy in the bar test. […]
# PACAP−/− mice [2] = assay: Effect of haloperidol on locomotor hyperactivity in the open field; details: haloperidol 0.2 mg/kg intraperitoneally, 20 min before 90 min test, versus vehicle
# Description: as §1, §2
# wild-type mice = assay: Effect of haloperidol on locomotor activity in the open field; details: haloperidol 0.2 mg/kg intraperitoneally, 20 min before 90 min test, versus vehicle
# Description: as §1, §2
compound,measurement,setting,value
"O=C(CCCN1CCC(O)(c2ccc(Cl)cc2)CC1)c1ccc(F)cc1 [Haloperidol, haloperidol]",cataleptogenic effect (bar test),PACAP−/− mice [1],quite similar to that in wild-type mice
same,reduction of hyperactivity (total locomotor activity),PACAP−/− mice [2],65±10 % reduction
same,impairment of locomotor activity (total activity),wild-type mice,43±21 % reduction
